Reference: US20210009564A1, “CALPAIN MODULATORS AND THERAPEUTIC USES THEREOF” (BLADE THERAPERTICS, INC., priority 2018, published 2021)
Counter-ions that a name gives are not always drawn.

Experiments:
Human Calpain 1/NS1 = biological target: T1, Human Calpain 1/NS1 (Homo sapiens, UniProt P07384); assay: Calpain inhibition, continuous fluorescence (FRET substrate) assay, calpain 1; format: biochemical; conditions: SensoLyte 520 FRET substrate, 25C
T1 sequence (P07384 1-714): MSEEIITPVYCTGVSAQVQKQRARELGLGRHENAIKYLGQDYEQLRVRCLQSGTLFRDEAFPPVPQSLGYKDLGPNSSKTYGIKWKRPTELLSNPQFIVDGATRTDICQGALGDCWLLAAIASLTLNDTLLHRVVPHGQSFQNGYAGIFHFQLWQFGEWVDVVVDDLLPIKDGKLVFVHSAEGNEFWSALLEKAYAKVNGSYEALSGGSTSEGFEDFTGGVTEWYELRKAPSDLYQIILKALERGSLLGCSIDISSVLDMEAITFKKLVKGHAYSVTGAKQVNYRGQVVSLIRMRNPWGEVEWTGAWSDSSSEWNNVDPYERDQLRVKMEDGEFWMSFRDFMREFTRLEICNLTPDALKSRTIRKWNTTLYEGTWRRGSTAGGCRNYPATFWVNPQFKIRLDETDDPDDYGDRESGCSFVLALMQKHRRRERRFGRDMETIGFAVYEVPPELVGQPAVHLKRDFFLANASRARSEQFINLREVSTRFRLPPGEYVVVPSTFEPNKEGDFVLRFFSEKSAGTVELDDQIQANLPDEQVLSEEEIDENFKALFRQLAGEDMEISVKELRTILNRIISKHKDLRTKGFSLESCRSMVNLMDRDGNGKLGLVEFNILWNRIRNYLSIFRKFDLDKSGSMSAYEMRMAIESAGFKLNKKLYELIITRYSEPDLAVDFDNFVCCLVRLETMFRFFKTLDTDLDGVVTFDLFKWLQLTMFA
T1 sequence (P04632 1-268 partner): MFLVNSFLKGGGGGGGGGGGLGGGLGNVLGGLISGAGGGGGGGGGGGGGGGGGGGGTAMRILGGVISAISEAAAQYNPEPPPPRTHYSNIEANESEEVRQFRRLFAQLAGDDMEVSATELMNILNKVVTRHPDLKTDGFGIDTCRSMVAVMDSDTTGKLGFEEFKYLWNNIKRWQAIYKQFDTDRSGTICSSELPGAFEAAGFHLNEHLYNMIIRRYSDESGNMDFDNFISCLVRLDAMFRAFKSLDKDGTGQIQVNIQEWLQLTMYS
In short: (§1)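 Calpains preincubated with serially diluted inhibitors at 25 °C in 50 mM Tris pH 7.5, 100 mM NaCl, 1 mM DTT; CaCl2 plus 5-FAM/QXL 520 FRET substrate started the reaction. Fluorescence (490/520 nm) read 10 min; rates from 1-5 min slopes, IC50 from 4-parameter logistic fit.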

Human Calpain 2/NS1 = biological target: T2, Human Calpain 2/NS1 (Homo sapiens, UniProt P17655); assay: Calpain inhibition, continuous fluorescence (FRET substrate) assay, calpain 2; format: biochemical; conditions: SensoLyte 520 FRET substrate, 25C
T2 sequence (P17655 1-700): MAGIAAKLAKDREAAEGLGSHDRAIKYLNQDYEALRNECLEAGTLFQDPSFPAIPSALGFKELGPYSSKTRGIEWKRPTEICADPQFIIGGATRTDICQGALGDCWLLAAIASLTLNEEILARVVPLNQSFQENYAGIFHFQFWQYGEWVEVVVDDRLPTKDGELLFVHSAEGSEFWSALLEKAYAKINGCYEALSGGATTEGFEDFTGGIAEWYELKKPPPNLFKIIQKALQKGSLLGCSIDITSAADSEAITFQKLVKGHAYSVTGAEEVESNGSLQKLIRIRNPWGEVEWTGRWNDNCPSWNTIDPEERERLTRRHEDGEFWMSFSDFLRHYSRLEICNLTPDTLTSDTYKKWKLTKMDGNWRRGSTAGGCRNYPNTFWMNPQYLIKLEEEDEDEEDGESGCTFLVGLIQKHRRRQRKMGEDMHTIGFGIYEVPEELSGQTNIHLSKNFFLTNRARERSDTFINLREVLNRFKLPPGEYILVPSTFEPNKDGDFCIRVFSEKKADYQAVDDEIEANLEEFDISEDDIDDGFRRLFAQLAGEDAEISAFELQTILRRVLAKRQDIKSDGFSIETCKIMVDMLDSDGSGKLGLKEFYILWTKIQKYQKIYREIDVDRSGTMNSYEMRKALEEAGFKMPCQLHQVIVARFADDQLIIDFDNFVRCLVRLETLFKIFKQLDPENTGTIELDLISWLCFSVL
T2 sequence (P04632 1-268 partner): T1 sequence (P04632 1-268 partner)
In short: as §1

Human Calpain 9/NS1 = biological target: T3, Human Calpain 9/NS1 (Homo sapiens, UniProt O14815); assay: Calpain inhibition, continuous fluorescence (FRET substrate) assay, calpain 9; format: biochemical; conditions: SensoLyte 520 FRET substrate, 25C
T3 sequence (O14815 1-690): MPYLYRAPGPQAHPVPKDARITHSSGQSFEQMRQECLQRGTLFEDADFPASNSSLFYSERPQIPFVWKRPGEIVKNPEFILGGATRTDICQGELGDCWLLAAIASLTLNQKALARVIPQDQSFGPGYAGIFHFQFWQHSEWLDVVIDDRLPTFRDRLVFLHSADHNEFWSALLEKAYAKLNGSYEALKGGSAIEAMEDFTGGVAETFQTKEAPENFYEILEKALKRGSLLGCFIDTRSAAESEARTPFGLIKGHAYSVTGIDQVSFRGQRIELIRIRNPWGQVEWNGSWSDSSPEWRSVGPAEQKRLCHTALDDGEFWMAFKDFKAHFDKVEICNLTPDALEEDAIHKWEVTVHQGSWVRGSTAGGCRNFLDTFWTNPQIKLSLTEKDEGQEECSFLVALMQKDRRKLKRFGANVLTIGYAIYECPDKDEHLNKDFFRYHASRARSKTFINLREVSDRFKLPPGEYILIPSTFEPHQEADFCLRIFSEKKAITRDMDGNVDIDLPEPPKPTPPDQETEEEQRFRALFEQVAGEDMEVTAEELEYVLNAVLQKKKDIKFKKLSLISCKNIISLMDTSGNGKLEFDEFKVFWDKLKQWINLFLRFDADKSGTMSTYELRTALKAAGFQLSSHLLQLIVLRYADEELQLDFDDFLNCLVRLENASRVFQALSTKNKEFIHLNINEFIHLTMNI
T3 sequence (P04632 1-268 partner): T1 sequence (P04632 1-268 partner)
In short: as §1

[1] = test system: Calpain activity in SH-SY5Y cells; assay: SH-SY5Y spectrin breakdown product (SBDP-150) western blot assay; format: cell-based; conditions: Homo sapiens; SH-SY5Y cells, 25 uM A23187, SBDP-150 western blot; read-out: SH-SY5Y Spectrin IC50
[2] = test system: Calpain activity in SH-SY5Y cells; assay: SH-SY5Y Suc-LLVY-AMC fluorescence assay; format: cell-based; conditions: Homo sapiens; SH-SY5Y cells, 100 uM Suc-LLVY-AMC; read-out: SH-SY5Y + AMC IC50

Structure (SMILES) | IC50 (Human Calpain 1/NS1) [µM] | IC50 (Human Calpain 2/NS1) [µM] | IC50 (Human Calpain 9/NS1) [µM] | IC50 [1] [µM] | IC50 [2] [µM]
Cn1cc(C(=O)NC(Cc2ccccc2)C(=O)C(N)=O)c(N2CCNCC2)n1 (stereo not drawn) [Compound 2, N-(4-AMINO-3,4-DIOXO-1-PHENYLBUTAN-2-YL)-1-METHYL-3-(PIPERAZIN-1-YL)-1H-PYRAZOLE-4-CARBOXAMIDE HYDROCHLORIDE] | > 10 | 3 to 10 | > 10 | > 25 | 10 to 25
CC(C)n1ncc2c(-c3nn(C)cc3C(=O)NC(Cc3ccccc3)C(=O)C(N)=O)cccc21 (stereo not drawn) [Compound 100, N-(4-AMINO-3,4-DIOXO-1-PHENYLBUTAN-2-YL)-3-(1-ISOPROPYL-1H-INDAZOL-4-YL)-1-METHYL-1H-PYRAZOLE-4-CARBOXAMIDE] | < 3 | < 3 | < 3 | 10 to 25 | 10 to 25
Cn1cc(C(=O)NC(Cc2ccccc2)C(=O)C(N)=O)c(-c2cnc3ccccc3n2)n1 (stereo not drawn) [Compound 13, N-(4-AMINO-3,4-DIOXO-1-PHENYLBUTAN-2-YL)-1-METHYL-3-(QUINOXALIN-2-YL)-1H-PYRAZOLE-4-CARBOXAMIDE] | < 3 | < 3 | < 3 | > 25 | > 25
NC(=O)C(=O)C(Cc1ccccc1)NC(=O)c1cn(C(F)F)nc1-c1cccc2ocnc12 (stereo not drawn) [Compound 71, N-(4-AMINO-3,4-DIOXO-1-PHENYLBUTAN-2-YL)-3-(BENZO[D]OXAZOL-4-YL)-1-(DIFLUOROMETHYL)-1H-PYRAZOLE-4-CARBOXAMIDE] | < 3 | < 3 | < 3 | < 10 | < 10
Cc1cc(-c2nn(C(F)F)cc2C(=O)NC(Cc2ccccc2)C(=O)C(N)=O)c(C)o1 (stereo not drawn) [Compound 24, N-(4-AMINO-3,4-DIOXO-1-PHENYLBUTAN-2-YL)-1-(DIFLUOROMETHYL)-3-(2,5-DIMETHYLFURAN-3-YL)-1H-PYRAZOLE-4-CARBOXAMIDE] | < 3 | < 3 | < 3 | 10 to 25 | < 10
NC(=O)C(=O)C(Cc1ccccc1)NC(=O)c1cn(C(F)F)nc1-c1cccc2scnc12 (stereo not drawn) [Compound 70, N-(4-AMINO-3,4-DIOXO-1-PHENYLBUTAN-2-YL)-3-(BENZO[D]THIAZOL-4-YL)-1-(DIFLUOROMETHYL)-1H-PYRAZOLE-4-CARBOXAMIDE] | < 3 | < 3 | < 3 | < 10 | < 10
Cc1nc(-c2cccc3ccsc23)c(C(=O)NC(Cc2ccccc2)C(=O)C(N)=O)o1 (stereo not drawn) [Compound 91, N-(4-AMINO-3,4-DIOXO-1-PHENYLBUTAN-2-YL)-4-(BENZO[b]THIOPHEN-7-YL)-2-METHYLOXAZOLE-5-CARBOXAMIDE] | < 3 | < 3 | < 3 | < 10 | < 10

More lines, now with the values ahead:

IC50 (Human Calpain 1/NS1) [µM] | IC50 (Human Calpain 2/NS1) [µM] | IC50 (Human Calpain 9/NS1) [µM] | IC50 [1] [µM] | IC50 [2] [µM] | Structure (SMILES)
< 3 | < 3 | < 3 | < 10 | < 10 | Cn1cc(C(=O)NC(Cc2ccccc2)C(=O)C(N)=O)c(-c2cccc3oc(=O)[nH]c23)n1 (stereo not drawn) [Compound 35, N-(4-AMINO-3,4-DIOXO-1-PHENYLBUTAN-2-YL)-1-METHYL-3-(2-OXO-2,3-DIHYDROBENZO[D]OXAZOL-4-YL)-1H-PYRAZOLE-4-CARBOXAMIDE]
< 3 | < 3 | < 3 | 10 to 25 | > 25 | NC(=O)C(=O)C(Cc1ccccc1)NC(=O)c1cnoc1-c1cccc2c1OC(F)(F)O2 (stereo not drawn) [Compound 8, N-(4-AMINO-3,4-DIOXO-1-PHENYLBUTAN-2-YL)-5-(2,2-DIFLUOROBENZO[d][1,3]DIOXOL-4-YL)ISOXAZOLE-4-CARBOXAMIDE]
< 3 | < 3 | < 3 | 10 to 25 | 10 to 25 | O=C(O)C(=O)C(Cc1ccccc1)NC(=O)c1cn(C2CC2)nc1-c1ccccc1 (stereo not drawn) [Compound 60, 3-(1-CYCLOPROPYL-3-PHENYL-1H-PYRAZOLE-4-CARBOXAMIDO)-2-OXO-4-PHENYLBUTANOIC ACID]
3 to 10 | < 3 | < 3 | > 25 | > 25 | Cn1cc(C(=O)NC(Cc2ccccc2)C(=O)C(N)=O)c(-c2nccc3ccccc23)n1 (stereo not drawn) [Compound 10, N-(4-AMINO-3,4-DIOXO-1-PHENYLBUTAN-2-YL)-3-(ISOQUINOLIN-1-YL)-1-METHYL-1H-PYRAZOLE-4-CARBOXAMIDE]
< 3 | < 3 | < 3 | < 10 | > 25 | Cn1cc(C(=O)NC(Cc2ccccc2)C(=O)C(N)=O)c(-c2cccc3sccc23)n1 (stereo not drawn) [Compound 102, N-(4-AMINO-3,4-DIOXO-1-PHENYLBUTAN-2-YL)-3-(BENZO[b]THIOPHEN-4-YL)-1-METHYL-1H-PYRAZOLE-4-CARBOXAMIDE]
> 10 | 3 to 10 | 3 to 10 | > 25 | < 10 | Cc1cc(C(=O)NC(Cc2ccccc2)C(=O)C(N)=O)nn1-c1ncc2ccccc2n1 (stereo not drawn) [Compound 27, N-(4-AMINO-3,4-DIOXO-1-PHENYLBUTAN-2-YL)-5-METHYL-1-(QUINAZOLIN-2-YL)-1H-PYRAZOLE-3-CARBOXAMIDE]
< 3 | < 3 | < 3 | < 10 | < 10 | NC(=O)C(=O)C(Cc1ccccc1)NC(=O)c1cn(C(F)F)nc1-c1coc(Cl)c1 (stereo not drawn) [Compound 21, N-(4-AMINO-3,4-DIOXO-1-PHENYLBUTAN-2-YL)-3-(5-CHLOROFURAN-3-YL)-1-(DIFLUOROMETHYL)-1H-PYRAZOLE-4-CARBOXAMIDE]
< 3 | < 3 | < 3 | 10 to 25 | < 10 | Cc1cc(-c2nc(C)oc2C(=O)NC(Cc2ccccc2)C(=O)C(N)=O)c(C)o1 (stereo not drawn) [Compound 78, N-(4-AMINO-3,4-DIOXO-1-PHENYLBUTAN-2-YL)-4-(2,5-DIMETHYLFURAN-3-YL)-2-METHYLOXAZOLE-5-CARBOXAMIDE]
